Measurements: EPA's ToxRefDB 2

How the values were obtained:
[1] = tested on: rat; details: Subchronic oral toxicity in rodents, wistar, Gavage/Intubation, dose end: 90 day, group: systemic
[2] = tested on: dog; details: Chronic toxicity, beagle, Oral, Capsule, dose end: 1 year, group: systemic
[3] = tested on: dog; details: Sub-acute repeat dose toxicity, beagle, Injection, Intravenous, dose end: 4 week, group: systemic
[4] = tested on: dog; details: Chronic toxicity, beagle, Oral, Capsule, dose end: 6 month, group: systemic
[5] = tested on: dog; details: Subchronic oral toxicity in nonrodent, beagle, Capsule, dose end: 98 day, group: systemic
[6] = tested on: rat; details: Neurotoxicity screening battery; sprague dawley; Oral; Feed; dose end: 90 day; group: cannot be grouped; systemic / in life observation / body weight / body weight + systemic / in life observation / food consumption / food consumption + systemic…
[7] = systemic / clinical chemistry / urea nitrogen / urea + systemic / hematology / blood clotting / blood clotting - clotting time + systemic / …
[8] = systemic / clinical chemistry / alanine aminotransferase (alt/sgpt) / alanine aminotransferase (alt/sgpt)
[9] = systemic / clinical chemistry / alanine aminotransferase (alt/sgpt) / alanine aminotransferase (alt/sgpt) + systemic / clinical chemistry / …
[10] = systemic / in life observation / clinical signs / vomitting + systemic / organ weight / prostate / nos
[11] = systemic / clinical chemistry / alanine aminotransferase (alt/sgpt) / alanine aminotransferase (alt/sgpt) + systemic / in life observation…

Work on `CC(C)c1ccc(C(=O)N=C(N)N)cc1S(C)(=O)=O.CS(=O)(=O)O` [Cariporide mesylate] yielded an LOAEL [1, 7] of 100 mg/kg/day, an NEL [1, 7] of 5 mg/kg/day and an NOAEL [1, 7] of 22 mg/kg/day. For the same compound, the LEL ([1]; systemic / organ weight / liver / relative to body weight) was 22 mg/kg/day, the LEL [2, 8] was 3.2 mg/kg/day and the NEL [2, 8] was under 3.2 mg/kg/day. For the same compound, the LOAEL [2, 9] was over 20 mg/kg/day, the NOAEL [2, 9] was at least 20 mg/kg/day and the NEL ([3]; systemic / in life observation / clinical signs / vomitting) was 5 mg/kg/day. It also gave an LEL [3, 10] of 20 mg/kg/day, an LOAEL [3, 10] of over 20 mg/kg/day and an NOAEL [3, 10] of at least 20 mg/kg/day. It also gave an LEL [4, 8] of 8 mg/kg/day, an LOAEL [4, 11] of over 20 mg/kg/day and an NEL [4, 11] of 3.2 mg/kg/day. The NOAEL [4, 11] was at least 20 mg/kg/day.
`N#Cc1c(Cl)c(Cl)c(Cl)c(C#N)c1Cl` [Chlorothalonil] showed an LEL [5, 8] of 15 mg/kg/day, an NEL [5, 8] of under 15 mg/kg/day and an LOAEL ([5]; systemic / in life observation / body weight / body weight gain) of 150 mg/kg/day. The NOAEL ([5]; systemic / in life observation / body weight / body weight gain + systemic / clinical chemistry / alanine aminotransferase (alt/sgpt) / …) was 15 mg/kg/day, the LEL [6] was 232 mg/kg/day and the LOAEL [6] was 232 mg/kg/day. The NEL [6] was 22 mg/kg/day and the NOAEL [6] was 22 mg/kg/day.
